How the values were obtained:
[1] = test system: A549; experiment: Cytotoxicity against human A549 cells after 72 hrs by sulforhodamine B dye assay; type: functional, cell-based; details: A549, 72 h
[2] = test system: P388; experiment: Cytotoxicity against mouse P388 cells after 48 hrs by tetrazolium-formazan method; type: functional, cell-based; details: P388, 48 h

Row | SMILES | IC50 [1] [nM] | IC50 [2] [nM]
1 | CN(C)CCCN1C(=O)c2cccc3c2c(cc2nc(N)sc23)C1=O | 772 | 1230
2 | CN(C)CCN1C(=O)c2cccc3cc4nc(N)sc4c(c23)C1=O | 0.8 | 5
3 | CN(C)CCN1C(=O)c2cccc3c2c(cc2nc(N)sc23)C1=O | 500 | 1030
4 | CN(C)CCCN1C(=O)c2cccc3cc4nc(N)sc4c(c23)C1=O | 21.8 | 294
5 | CN(C)CCN1C(=O)c2cccc3cc4ncsc4c(c23)C1=O | 39.8 | 83.9
6 | CN(C)CCN1C(=O)c2cccc3cc4nc(O)sc4c(c23)C1=O | 45 | 52.5
7 | CN(C)CCN1C(=O)c2cccc3cc4nc(Cl)sc4c(c23)C1=O | 88 | 18.5
8 | CN(C)CCNc1nc2cc3cccc4c3c(c2s1)C(=O)N(CCN(C)C)C4=O | 30.6 | 8.31

Source: ChEMBL document CHEMBL1139791, “Highly efficient antitumor agents of heterocycles containing sulfur atom: linear and angular thiazonaphthalimides against human lung cancer cell in vitro” (Bioorg Med Chem, 2007)
